Test results from patent publication US7714146B2, “Azulene-oxindole compounds as multiple-kinase inhibitors and useful as anticancer agents” (Industrial Technology Research Institute, priority 2006, dated 2010).

What was measured:
Format in all cases: biochemical
[1] = target: T1, human EGFR (His672-Ala1210) (Homo sapiens, UniProt P00533); assay: EGFR kinase assay (HTScan kit, DELFIA); conditions: for inhibition at 0.1 µM: compound at 0.1 μM, read-out: EGFR 0.1 μM, % of inhibition relative to control; for inhibition at 1 µM: compound at 1 μM, read-out: EGFR 1 μM, % of inhibition relative to control
T1 construct: human EGFR (His672-Ala1210); GST (N); purchased Cell Signaling Technology; host or cells: baculovirus expression system
Method: Compounds 1-100 were treated for their efficacy in inhibiting activities of FLT-3, c-KIT, KDR/Flk-1, PDGFR-beta, EGFR, and PKC kinases by biochemical DELFIA (Dissociation Enhanced Lanthanide FIA) assays according to the procedure described below. The assays were conducted by, Division of Cell Engineering, Biomedical Engineering Research Laboratories, Industrial Technology Research Institute, Bldg. 53, 195, sec. 4, Chung Hsing Rd. Chutung, Hsinchu, Taiwan 310, R.O.C.
The EGFR assay was conducted following the protocol described in Protocol for HTScan® EGFR Kinase Assay Kit (Cell Signaling Technology®). The assay was conducted under the following conditions: EGFR source: The GST-kinase fusion protein was produced using a baculovirus expression system with a construct expressing human EGFR (His672-Ala1210) (GenBank Accession No. NM_005228) with an amino-terminal GST tag, substrate: 1.5 μM This biotinylated peptide contains the residues surrounding Tyr-66 of PTP1B, vehicle: 1% DMSO, pre-incubation time/temperature: 5 minutes at room temperature, incubation time/temperature: 30 minutes at room temperature, incubation buffer: 60 mM HEPES pH 7.5, 5 mM MgCl2, 5 mM MnCl2, 3 μM Na3VO4, 1.25 mM DTT, 20 μM ATP, and quantitative method: DELFIA® Assay.

[2] = target: T2, human FLT-3 (Arg571-Ser993) (Homo sapiens, UniProt P36888); assay: FLT-3 kinase assay (HTScan kit, DELFIA); conditions: for inhibition at 0.1 µM: compound at 0.1 μM, read-out: FLT-3 0.1 μM, % of inhibition relative to control; for inhibition at 1 µM: compound at 1 μM, read-out: FLT-3 1 μM, % of inhibition relative to control; for IC50: read-out: FLT-3 kinase inhibition (IC50)
T2 construct: human FLT-3 (Arg571-Ser993); GST (N); purchased Cell Signaling Technology; host or cells: baculovirus expression system
T2 sequence (P36888 571-993): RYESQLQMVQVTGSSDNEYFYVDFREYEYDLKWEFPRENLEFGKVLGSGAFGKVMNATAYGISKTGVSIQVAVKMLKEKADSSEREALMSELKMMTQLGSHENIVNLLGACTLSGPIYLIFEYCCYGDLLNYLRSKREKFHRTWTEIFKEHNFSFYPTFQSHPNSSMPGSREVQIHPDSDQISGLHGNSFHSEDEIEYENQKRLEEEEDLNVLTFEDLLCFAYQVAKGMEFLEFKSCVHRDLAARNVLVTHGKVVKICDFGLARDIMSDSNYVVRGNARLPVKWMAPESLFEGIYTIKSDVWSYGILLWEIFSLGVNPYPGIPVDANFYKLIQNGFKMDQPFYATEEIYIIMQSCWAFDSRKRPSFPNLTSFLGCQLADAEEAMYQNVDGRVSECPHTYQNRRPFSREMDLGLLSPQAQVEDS
Procedure, shortened: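 GST-tagged human FLT-3 (Arg571-Ser993, baculovirus-expressed) phosphorylated 1.5 μM biotinylated gastrin precursor peptide with 20 μM ATP in HEPES pH 7.5, Mg/Mn buffer and 1% DMSO. After 5 min preincubation, the reaction ran 30 min at room temperature. Phosphorylation was read by DELFIA.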

[3] = target: T3, human c-KIT (Thr544-Val976) (Homo sapiens, UniProt P10721); assay: c-KIT kinase assay (HTScan kit, DELFIA); conditions: for inhibition at 0.1 µM: compound at 0.1 μM, read-out: c-KIT 0.1 μM, % of inhibition relative to control; for inhibition at 1 µM: compound at 1 μM, read-out: c-KIT 1 μM, % of inhibition relative to control; for IC50: read-out: c-KIT kinase inhibition (IC50)
T3 construct: human c-KIT (Thr544-Val976); GST (N); purchased Cell Signaling Technology; host or cells: baculovirus expression system
Procedure, shortened: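 GST-tagged human c-KIT (Thr544-Val976) from baculovirus, with 1.5 μM biotinylated KDR Tyr-996 peptide and 20 μM ATP in HEPES pH 7.5 buffer containing Mg2+/Mn2+ and 1% DMSO. Enzyme and compound pre-incubated 5 min, reaction run 30 min at room temperature; phosphorylation detected by DELFIA.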

[4] = target: T4, human VEGFR-2 (Val789-Val1356) (Homo sapiens, UniProt P35968); assay: KDR kinase assay (HTScan VEGFR-2 kit, DELFIA); conditions: for inhibition at 1 µM: compound at 1 μM, read-out: KDR 1 μM, % of inhibition relative to control; for inhibition at 0.1 µM: compound at 0.1 μM, read-out: KDR 0.1 μM, % of inhibition relative to control
T4 construct: human VEGFR-2 (Val789-Val1356); GST (N); purchased Cell Signaling Technology; host or cells: baculovirus expression system
Procedure, shortened: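 GST-tagged human VEGFR-2 (Val789-Val1356) from baculovirus, with 1.5 μM biotinylated gastrin precursor peptide and 20 μM ATP in HEPES pH 7.5, Mg/Mn, vanadate, DTT, 1% DMSO. Pre-incubation 5 min, reaction 30 min at room temperature; phosphorylation read by DELFIA.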

T4 sequence (P35968 789-1356): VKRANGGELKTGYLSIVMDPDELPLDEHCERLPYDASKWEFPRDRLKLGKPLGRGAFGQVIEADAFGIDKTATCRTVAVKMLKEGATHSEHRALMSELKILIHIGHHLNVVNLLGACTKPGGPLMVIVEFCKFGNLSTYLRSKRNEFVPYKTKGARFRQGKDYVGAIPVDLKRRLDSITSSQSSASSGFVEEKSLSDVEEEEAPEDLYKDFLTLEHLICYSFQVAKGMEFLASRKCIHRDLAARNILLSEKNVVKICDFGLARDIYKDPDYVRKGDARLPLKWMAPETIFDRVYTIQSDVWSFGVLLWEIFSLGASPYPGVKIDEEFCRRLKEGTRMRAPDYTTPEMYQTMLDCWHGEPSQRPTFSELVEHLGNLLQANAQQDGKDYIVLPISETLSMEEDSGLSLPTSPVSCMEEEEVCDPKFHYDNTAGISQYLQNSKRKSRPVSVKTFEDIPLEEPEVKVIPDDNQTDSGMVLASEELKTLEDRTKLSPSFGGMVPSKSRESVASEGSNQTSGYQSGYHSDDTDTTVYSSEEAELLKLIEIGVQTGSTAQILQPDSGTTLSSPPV
T1 sequence (P00533 672-1210): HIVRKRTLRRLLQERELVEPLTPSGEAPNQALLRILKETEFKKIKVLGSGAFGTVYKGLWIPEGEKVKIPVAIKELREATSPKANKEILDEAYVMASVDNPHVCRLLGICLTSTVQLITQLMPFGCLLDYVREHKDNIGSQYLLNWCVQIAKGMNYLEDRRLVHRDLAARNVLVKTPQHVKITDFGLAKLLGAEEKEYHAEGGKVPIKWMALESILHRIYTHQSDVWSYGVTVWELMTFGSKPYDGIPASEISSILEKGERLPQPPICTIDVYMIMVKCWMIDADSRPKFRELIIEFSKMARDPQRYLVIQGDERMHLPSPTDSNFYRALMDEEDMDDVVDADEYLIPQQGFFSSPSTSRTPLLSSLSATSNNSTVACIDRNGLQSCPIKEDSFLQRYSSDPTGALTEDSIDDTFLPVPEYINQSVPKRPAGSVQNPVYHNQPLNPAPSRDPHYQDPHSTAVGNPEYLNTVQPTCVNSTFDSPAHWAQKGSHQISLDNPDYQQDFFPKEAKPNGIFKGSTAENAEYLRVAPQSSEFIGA
T3 sequence (P10721 544-976): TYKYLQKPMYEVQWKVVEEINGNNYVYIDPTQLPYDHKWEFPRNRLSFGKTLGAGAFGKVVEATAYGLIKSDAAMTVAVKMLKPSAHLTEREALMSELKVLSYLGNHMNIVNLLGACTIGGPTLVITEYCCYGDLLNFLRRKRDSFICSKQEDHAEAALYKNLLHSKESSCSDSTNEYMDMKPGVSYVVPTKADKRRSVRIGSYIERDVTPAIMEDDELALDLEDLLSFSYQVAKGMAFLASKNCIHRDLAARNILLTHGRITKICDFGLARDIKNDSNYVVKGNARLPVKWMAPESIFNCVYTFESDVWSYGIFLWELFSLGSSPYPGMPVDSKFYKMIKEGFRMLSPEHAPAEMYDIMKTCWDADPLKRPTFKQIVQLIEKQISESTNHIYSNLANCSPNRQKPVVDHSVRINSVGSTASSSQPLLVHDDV

Structure (SMILES)	inhibition at 0.1 µM [1] [%]	inhibition at 1 µM [1] [%]	inhibition at 0.1 µM [2] [%]	inhibition at 1 µM [2] [%]	inhibition at 0.1 µM [3] [%]	inhibition at 1 µM [3] [%]	inhibition at 1 µM [4] [%]	inhibition at 0.1 µM [4] [%]	IC50 [2] [nM]	IC50 [3] [nM]	IC50 ([4]; read-out: KDR kinase inhibition (IC50)) [nM]
O=C1Nc2ccccc2/C1=C\c1cc2cccccc-2c1 [Compound 32, 3-Azulen-2-ylmethylene-1,3-dihydro-indol-2-one]	7.7	13.7	48.5	89.5	60.3	60.3	6.2				
O=C1Nc2ccccc2/C1=C/c1cc2cccccc-2c1 [Compound 33, 3-Azulen-2-ylmethylene-1,3-dihydro-indol-2-one]	15.2	13	50.5	85.6	63.1	63.1	50.8	24.6			
Cc1cc(/C=C2/C(=O)Nc3ccccc32)c2cccccc1-2 [Compound 36, 3-(3-Methyl-azulen-1-ylmethylene)-1,3-dihydro-indol-2-one]	9.6	10.9		39.3	49.2	49.2	0.3				
Cc1cc(C=C2C(=O)Nc3ccccc32)c2cccccc1-2 [Compound 37, 3-(3-Methyl-azulen-1-ylmethylene)-1,3-dihydro-indol-2-one]	2.9	13.6	5.9	61.5	53.2	53.2	27.6				
O=C1Nc2ccc(F)cc2/C1=C\c1cc2cccccc-2c1 [Compound 40, 3-Azulen-2-ylmethylene-5-fluoro-1,3-dihydro-indol-2-one]	10	17.3	84.3	95.5	80	80	22.2	13.8			
O=C1Nc2ccc(F)cc2/C1=C/c1cc2cccccc-2c1 [Compound 41, 3-Azulen-2-ylmethylene-5-fluoro-1,3-dihydro-indol-2-one]	6.4	9.4	74.7	87.6	76.6	76.6	30.4	25.2	43.4	6	
O=C1Nc2ccc(F)cc2/C1=C/c1cc(Br)c2cccccc1-2 [Compound 45, 3-(3-Bromo-azulen-1-ylmethylene)-5-fluoro-1,3-dihydro-indol-2-one]	2.5		51.4	69.7	73.9	73.9	41.9	32.8			
O=C1Nc2ccc(F)cc2/C1=C/c1cc(Cl)c2cccccc1-2 [Compound 46, 3-(3-Chloro-azulen-1-ylmethylene)-5-fluoro-1,3-dihydro-indol-2-one]	11	18.5	45.9	73.5	70.9	70.9	33.2	10			

Other lines, results leading:

inhibition at 0.1 µM [1] [%]	inhibition at 1 µM [1] [%]	inhibition at 0.1 µM [2] [%]	inhibition at 1 µM [2] [%]	inhibition at 0.1 µM [3] [%]	inhibition at 1 µM [3] [%]	inhibition at 1 µM [4] [%]	inhibition at 0.1 µM [4] [%]	IC50 [2] [nM]	IC50 [3] [nM]	IC50 ([4]; read-out: KDR kinase inhibition (IC50)) [nM]	Structure (SMILES)
6.1	11.7	0.8	1.9			18.2	8.9				O=C1Nc2ccc(-c3ccccc3)cc2/C1=C/c1ccc2cccccc1-2 [Compound 34, 3-Azulen-1-ylmethylene-5-phenyl-1,3-dihydro-indol-2-one]
0.8	1.7	40.5	79	72.6	72.6	8.4	2.3				Cc1cc(/C=C2/C(=O)Nc3ccc(F)cc32)c2cccccc1-2 [Compound 38, 5-Fluoro-3-(3-methyl-azulen-1-ylmethylene)-1,3-dihydro-indol-2-one]
6.1	14.1	45.6	93.2	80.1	80.1	20.2		491	128	6380	Cc1cc(/C=C2\C(=O)Nc3ccc(F)cc32)c2cccccc1-2 [Compound 39, 5-Fluoro-3-(3-methyl-azulen-1-ylmethylene)-1,3-dihydro-indol-2-one]
8.8	10.8	8.9	24.3	8.3	8.3	13.6	6				O=C1Nc2c(Cl)cccc2/C1=C/c1ccc2cccccc1-2 [Compound 42, 3-Azulen-1-ylmethylene-7-chloro-1,3-dihydro-indol-2-one]
6.2	11.9		24.3	14.7	14.7	6.8					COc1ccc2c(c1)/C(=C\c1ccc3cccccc1-3)C(=O)N2 [Compound 43, 3-Azulen-1-ylmethylene-5-methoxy-1,3-dihydro-indol-2-one]
4.7	9.3	5.7	8.2	7.2	7.2	38.4					COc1ccc2c(c1)/C(=C/c1ccc3cccccc1-3)C(=O)N2 [Compound 44, 3-Azulen-1-ylmethylene-5-methoxy-1,3-dihydro-indol-2-one]
8.3	14.6	0.5	48.6	30.7	30.7	34	7.8				Cc1ccc2c(c1)/C(=C\c1ccc3cccccc1-3)C(=O)N2 [Compound 47, 3-Azulen-1-ylmethylene-5-methyl-1,3-dihydro-indol-2-one]
7.8	10.4	4.5	61.6	32.2	32.2	13.8					Cc1ccc2c(c1)/C(=C/c1ccc3cccccc1-3)C(=O)N2 [Compound 48, 3-Azulen-1-ylmethylene-5-methyl-1,3-dihydro-indol-2-one]
